The source of these data is the NIST ThermoML archive (doi:10.1016/j.jct.2016.07.009).

Numbers after ± are expanded uncertainties.

Data set [1] in a line: Molar enthalpy of transition or fusion. The conditions noted are these: Crystal; DSC.
For data set [2] the following is noted: Crystal; DTA.

Consider `Nc1ccc([N+](=O)[O-])cc1[N+](=O)[O-]` [2,4-dinitroaniline], for which the “Molar enthalpy of transition or fusion” value in data set [1] turned out to be 5.93 ± 0.227 kcal/mol. Further, the Normal melting temperature in data set [2] came out at 178.1 ± 1.1 °C.
